{"source": "patent US20230190707A1", "about": "“COMPOSITIONS AND METHODS FOR ENHANCING CANCER IMMUNOTHERAPY” (FRED HUTCHINSON CANCER CENTER, priority 2020, published 2023)", "key": {"donor T cells": {"test_system": "donor T cells", "assay": "CFSE adoptive T cell transfer with in vivo splicing modulator treatment", "protocol": "Splenic T cells were obtained from B6 or CD45.1 donors by CD5 positive selection (Miltenyi Biotec, Cat. 130-049-301), labeled with CellTrace CFSE (ThermoFisher Cat. C34570) at 10 μM, and adoptively transferred by tail vein injection into lethally irradiated B6, Balb/c, or LP/J recipients, with […] labeled donor T cells transferred per recipient. All recipients were irradiated on day −1 prior to adoptive T cell transfer with 7 Gy as a single fraction and continuously received splicing inhibitor drugs or vehicle control at the indicated doses, from day −1 until day of sacrifice, with the initial dose of drug at least 4 hours after lethal irradiation. Indisulam and MS-023 were solubilized for in vivo administration and animals were treated as above. Pladienolide B (Tocris, Cat. 6070) and GEX1A (Cayman Chemicals, Cat. 25136) were both dissolved in vehicle (10% ethanol and 4% Tween-80 in sterile PBS) and administered i.p., with pladienolide B dosed at 10 mg/kg every other day, and GEX1A dosed at 1.25 mg/kg every four days. For in vivo use, EPZ015666 was dissolved in DMSO and solubilized in 0.5% methylcellulose in water to 20 mg/mL; animals were treated daily with 200 mg/kg by oral gavage."}, "[1]": {"test_system": "bone marrow hematopoietic stem and progenitor cells", "assay": "M3434 methylcellulose colony assay", "type": "cell-based, mouse", "protocol": "25,000 red blood cell-lysed bone marrow mononuclear cells from C57BL/6 mice were plated in duplicates or triplicates in each well of a non-tissue-culture treated 6 well plate with M3434 methylcellulose media in the presence of splicing drugs at the indicated concentrations as per manufacturer's instructions (StemCell Technologies, Cat. 03434) and incubated for seven days prior to quantification of colonies by manual microscopy."}, "[2]": {"test_system": "T cells stimulated with anti-CD3 and CD28 antibodies", "assay": "Gene expression program of activated T cells (RNA-seq)", "type": "cell-based, mouse", "conditions": "ex vivo anti-CD3 and CD28 stimulation in presence of drug", "protocol": "(§1) Plates were coated with 10 μg/mL anti-CD3 (clone 145-2C11, Biolegend Cat. 100302) and 2 μg/mL anti-CD28 (clone 37.51, Biolegend Cat. 102102) in PBS overnight at 4° C. and washed twice with cold PBS prior to use. CFSE-labeled CD5-selected splenic T cells from naïve C57BL/6J mice were obtained identically as for adoptive cell transfer, and 5×10^4 cells incubated with coated plates in the presence of splicing inhibitor drugs at the indicated concentrations, followed by analysis by standard flow cytometry on day 3. Of note, for RNA-seq analyses, T cells were not labeled with CFSE, and underwent activation for 4 days (96 hours) in the presence of various splicing modulator drugs to harmonize experimental conditions with RNA-seq analyses of tumors treated with splicing inhibitors. For the RNA-seq experiments only, T cells in all conditions were also incubated with IL-2 at 50 U/mL to maximize viability and yield.\nBulk lung and colon were homogenized using a Qiagen TissueRuptor. For all tissues and cell types, RNA was extracted using an RNeasy kit (Qiagen, Frederick, Md.) and quantified using a NanoDrop 8000 (ThermoFisher Scientific). A minimum of 500 ng of high-quality RNA (as determined by Agilent Bioanalyzer) per sample or replicate was used for library preparation. Poly(A)-selected, strand-specific (dUTP method) Illumina libraries were prepared with a modified TruSeq protocol and sequenced on the Illumina HiSeq 2000 (˜100M 2×101 bp paired-end reads per sample or replicate)."}, "CD5^+ splenic T cells": {"test_system": "CD5^+ splenic T cells", "assay": "Anti-CD3/CD28 T cell activation and proliferation (CFSE)", "type": "cell-based, mouse", "conditions": "three days of continuous drug exposure", "protocol": "Cell lines were grown with half-log10 concentrations of the indicated drug in 4 to 8 technical replicates under standard conditions until the control condition (DMSO or vehicle) was confluent by microscopy. For tumor cell lines, viable cells were quantified via the CellTiter-Glo® assay (Promega Cat. G7573) as per manufacturer instructions. For the ex vivo proliferation of T cells, viable cells were instead quantified via flow cytometry using counting beads. The percentage or number of viable cells with drug treatment was calculated relative to DMSO control (as 100%). […] For absolute cell number, Annexin V+, CD25+, and PD1+ flow cytometry data presented in Figure S4, dose-response models and IC50 values were computed using the R language's dre package (Ritz, C., et al. (2015). Dose-Response Analysis Using R. PLoS One 10, e0146021).\nas §1"}}, "note": "Where two headings read alike, the source gives them in different places.", "data": [{"compound": "O=C(NC[C@H](O)CN1CCc2ccccc2C1)c1cc(NC2COC2)ncn1", "note": "[EPZ015666]", "values": [{"measurement": "in vivo T cell proliferation or activation in response to alloantigen", "setting": "donor T cells; mouse, in vivo", "result": "minimal impairment"}, {"measurement": "hematopoiesis (colony formation)", "setting": "[1]", "result": "suppressed hematopoiesis"}]}, {"compound": "pladienolide B", "values": [{"measurement": "genes normally upregulated upon T cell activation", "setting": "[2]", "result": "markedly attenuated"}, {"measurement": "in vivo T cell proliferation or activation in response to alloantigen", "setting": "donor T cells; CD45.1 T cells into irradiated Balb/c or LP/J recipients, daily treatment", "result": "markedly suppressed T cell proliferation"}, {"measurement": "hematopoiesis (colony formation)", "setting": "[1]; micromolar doses, pladienolide B at nanomolar concentrations", "result": "even more profoundly suppressed hematopoiesis"}, {"measurement": "IC50 values, T cell proliferation following stimulation (in words)", "setting": "CD5^+ splenic T cells", "result": "low nanomolar range"}]}, {"compound": "CO[C@H]([C@@H](C)[C@H]1O[C@]1(C)C[C@H](C)/C=C/C=C(\\C)[C@H]1O[C@@H](CC(=O)O)CC[C@@H]1C)[C@@H](C)O", "note": "[GEX1A, herboxidiene]", "values": [{"measurement": "IC50 values, T cell proliferation following stimulation (in words)", "setting": "CD5^+ splenic T cells", "result": "low nanomolar range"}]}]}
